Results taken from patent publication US10508120B2, “TYK2 inhibitors and uses thereof” (Nimbus Lakshmi, Inc., priority 2017, dated 2019).
Where two headings read alike, the source gives them in different places.

Assays:
[1] = target: Tyk2 kinase domain (DH1) (Homo sapiens (Human), UniProt P29597); experiment: Tyk2 Radioactive Kinase Assay; type: biochemical; settings: for inhibition at 10 µM: read-out: Tyk2 JH1% Inhibition @ 10 μM
Procedure: (§1) The Tyk2 and JAK2 radioactive kinase assay measures the percent inhibition at the Tyk2 kinase domain (DH1) and the percent inhibition at the JAK2 kinase domain (JH1). Results of the assay are expressed as percent inhibition at 10 μM.

[2] = target: JAK2 kinase domain (JH1) (Homo sapiens (Human), UniProt O60674); experiment: JAK2 Radioactive Kinase Assay; type: biochemical; settings: for inhibition at 10 µM: read-out: JAK2 JH1% Inhibition @ 10 μM
JAK2 kinase domain (JH1), sequence (O60674 849-1124): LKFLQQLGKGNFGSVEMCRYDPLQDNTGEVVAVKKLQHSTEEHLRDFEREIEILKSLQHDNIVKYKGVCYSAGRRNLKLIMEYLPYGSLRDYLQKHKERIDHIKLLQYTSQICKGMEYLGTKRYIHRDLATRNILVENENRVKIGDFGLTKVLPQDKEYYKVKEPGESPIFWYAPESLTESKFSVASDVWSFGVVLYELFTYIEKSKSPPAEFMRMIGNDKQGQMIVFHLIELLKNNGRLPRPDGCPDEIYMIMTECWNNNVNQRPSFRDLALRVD
Procedure: as §1

Tyk2 kinase domain (DH1), sequence (P29597 897-1176): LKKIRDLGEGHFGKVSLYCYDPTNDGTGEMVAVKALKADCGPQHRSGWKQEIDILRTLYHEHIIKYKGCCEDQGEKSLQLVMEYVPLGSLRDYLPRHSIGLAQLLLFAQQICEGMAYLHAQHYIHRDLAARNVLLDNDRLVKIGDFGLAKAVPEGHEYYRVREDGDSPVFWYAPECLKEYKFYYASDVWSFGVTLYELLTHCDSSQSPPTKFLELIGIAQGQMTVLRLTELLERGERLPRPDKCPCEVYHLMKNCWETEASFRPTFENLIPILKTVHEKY

Structure (SMILES) | inhibition at 10 µM ([1]; 10 μM compound, 10 μM ATP) [%] | inhibition at 10 µM ([2]; 10 μM compound, 10 μM ATP) [%] | Tyk2 JH1% Inhibition @ 10 μM ([1]; 10 μM compound, 10 μM ATP) | JAK2 JH1% Inhibition @ 10 μM ([2]; 10 μM compound, 10 μM ATP) | also measured
CNc1cc(Nc2cccn([C@H]3CCN(C)C[C@@H]3F)c2=O)nc2c(C(=O)NC3CC3)cnn12 [I-685] |  |  |  |  | Tyk2 JH1% Inhibition @ 10 μM ([1]; compound at 10 μM, ATP 10 μM): A (percent inhibition at 10 μM lower than 50); JAK2 JH1% Inhibition @ 10 μM ([2]; compound at 10 μM, ATP 10 μM): A (percent inhibition at 10 μM lower than 50)
CNc1cc(Nc2cccn([C@H]3CCCOC3)c2=O)nc2c(C(=O)N[C@H]3CC[C@@H]3O)cnn12 [I-724] |  |  |  |  | Tyk2 JH1% Inhibition @ 10 μM ([1]; compound at 10 μM, ATP 10 μM): A (percent inhibition at 10 μM lower than 50); JAK2 JH1% Inhibition @ 10 μM ([2]; compound at 10 μM, ATP 10 μM): A (percent inhibition at 10 μM lower than 50)
CNc1cc(Nc2cccn([C@@H]3CCCOC3)c2=O)nc2c(C(=O)N[C@H]3CC[C@@H]3O)cnn12 [I-726] |  |  |  |  | Tyk2 JH1% Inhibition @ 10 μM ([1]; compound at 10 μM, ATP 10 μM): A (percent inhibition at 10 μM lower than 50); JAK2 JH1% Inhibition @ 10 μM ([2]; compound at 10 μM, ATP 10 μM): A (percent inhibition at 10 μM lower than 50)
CNc1cc(Nc2cccn(-c3nc(C)co3)c2=O)nc2c(C(=O)N[C@H]3CC[C@@H]3O)cnn12 [I-769] |  |  |  |  | Tyk2 JH1% Inhibition @ 10 μM ([1]; compound at 10 μM, ATP 10 μM): A (percent inhibition at 10 μM lower than 50); JAK2 JH1% Inhibition @ 10 μM ([2]; compound at 10 μM, ATP 10 μM): A (percent inhibition at 10 μM lower than 50)
CNc1cc(Nc2cccn([C@@H]3CCCOC3)c2=O)nc2c(C(=O)N[C@@H]3CCC[C@@H](O)C3)cnn12 [I-780] |  |  |  |  | Tyk2 JH1% Inhibition @ 10 μM ([1]; compound at 10 μM, ATP 10 μM): A (percent inhibition at 10 μM lower than 50); JAK2 JH1% Inhibition @ 10 μM ([2]; compound at 10 μM, ATP 10 μM): A (percent inhibition at 10 μM lower than 50)
CNc1cc(Nc2cccn([C@@H]3CCCOC3)c2=O)nc2c(C(=O)N[C@H]3COC[C@H]3O)cnn12 [I-786] |  |  |  |  | Tyk2 JH1% Inhibition @ 10 μM ([1]; compound at 10 μM, ATP 10 μM): A (percent inhibition at 10 μM lower than 50); JAK2 JH1% Inhibition @ 10 μM ([2]; compound at 10 μM, ATP 10 μM): A (percent inhibition at 10 μM lower than 50)
CNc1cc(Nc2cccn([C@@H]3CC[C@H]3O)c2=O)nc2c(C(=O)NC3CC3)cnn12 [I-802] |  |  |  |  | Tyk2 JH1% Inhibition @ 10 μM ([1]; compound at 10 μM, ATP 10 μM): A (percent inhibition at 10 μM lower than 50); JAK2 JH1% Inhibition @ 10 μM ([2]; compound at 10 μM, ATP 10 μM): A (percent inhibition at 10 μM lower than 50)
CNc1cc(Nc2cccn([C@H]3CCCOC3)c2=O)nc2c(C(=O)N[C@H]3CC[C@H]3O)cnn12 [I-803] |  |  |  |  | Tyk2 JH1% Inhibition @ 10 μM ([1]; compound at 10 μM, ATP 10 μM): A (percent inhibition at 10 μM lower than 50); JAK2 JH1% Inhibition @ 10 μM ([2]; compound at 10 μM, ATP 10 μM): A (percent inhibition at 10 μM lower than 50)
CNc1cc(Nc2cccn([C@H]3CCC[C@H](O)C3)c2=O)nc2c(C(=O)NC3CC3)cnn12 [I-821] | < 50 | < 50 |  |  | 
CNc1cc(Nc2cc(Cl)cn(C3CCOCC3)c2=O)nc2c(C(=O)N[C@H]3CC[C@@H]3O)cnn12 [I-826] | < 50 | < 50 |  |  | 
CNc1cc(Nc2cccc(N3CCO[C@@]4(CCOC4)C3)n2)nc2c(C(=O)NC3CC3)cnn12 [I-828] | < 50 | < 50 |  |  | 
CNc1cc(-c2cn(CCN3CCOCC3)c3ncccc23)nc2c(C(=O)N[C@@H]3CC[C@H]3O)cnn12 [I-835] | < 50 | < 50 |  |  | 
CNc1cc(Nc2cccn([C@H]3CCC[C@@H](OC)C3)c2=O)nc2c(C(=O)N[C@@H]3C[C@@H]3F)cnn12 [I-839] | < 50 | < 50 |  |  | 
CNc1cc(Nc2cccn([C@@H]3C[C@H]3F)c2=O)nc2c(C(=O)NC3CC3)cnn12 [I-866] | < 50 | < 50 |  |  | 
CNc1cc(Nc2cccn(C3CC4(COC4)C3)c2=O)nc2c(C(=O)N[C@H]3CC[C@H]3O)cnn12 [I-870] | < 50 | < 50 |  |  | 
CNc1cc(Nc2cccn(C3CCN(CCF)CC3)c2=O)nc2c(C(=O)N[C@H]3CC[C@H]3O)cnn12 [I-896] |  |  | A (percent inhibition at 10 μM lower than 50) | A (percent inhibition at 10 μM lower than 50) | 
CNc1cc(Nc2cccn(C3CCN(CCF)CC3)c2=O)nc2c(C(=O)N[C@@H]3CC[C@H]3O)cnn12 [I-898] |  |  | A (percent inhibition at 10 μM lower than 50) | A (percent inhibition at 10 μM lower than 50) | 
CNc1cc(-c2cn(CCN3CCN(C)CC3)c3ncccc23)nc2c(C(=O)N[C@H]3CC[C@H]3O)cnn12 [I-906, N-((1S,2R)-2-hydroxycyclobutyl)-7-(methylamino)-5-(1-(2-(4-methylpiperazin-1-yl)ethyl)-1H-pyrrolo[2,3-b]pyridin-3-yl)pyrazolo[1,5-a]pyrimidine-3-carboxamide] |  |  | A (percent inhibition at 10 μM lower than 50) | A (percent inhibition at 10 μM lower than 50) | 
CNc1cc(Nc2cccn(-c3ccccn3)c2=O)nc2c(C(=O)N[C@H]3CC[C@@H]3OC)cnn12 [I-909, N-((1S,2S)-2-methoxycyclobutyl)-7-(methylamino)-5-((2-oxo-2H-[1,2′-bipyridin]-3-yl)amino)pyrazolo[1,5-a]pyrimidine-3-carboxamide] |  |  |  |  | inhibition at 10 µM [1]: < 50%; inhibition at 10 µM [2]: < 50%
CNc1cc(Nc2cccn(C(C)C)c2=O)nc2c(C(=O)N[C@H]3CCC[C@H](O)C3)cnn12 [I-919, 5-N-(3-hydroxycyclohexyl)-5-((1-isopropyl-2-oxo-1,2-dihydropyridin-3-yl)amino)-7-(methylamino)pyrazolo[1,5-a]pyrimidine-3-carboxamide] |  |  | A (percent inhibition at 10 μM lower than 50) | A (percent inhibition at 10 μM lower than 50) | 
CNc1cc(-c2cn(CCN3CCN(C)CC3)c3ncccc23)nc2c(C(=O)N[C@H]3CC[C@@H]3O)cnn12 [I-920, N-((1S,2S)-2-hydroxycyclobutyl)-7-(methylamino)-5-(1-(2-(4-methylpiperazin-1-yl)ethyl)-1H-pyrrolo[2,3-b]pyridin-3-yl)pyrazolo[1,5-a]pyrimidine-3-carboxamide] |  |  | A (percent inhibition at 10 μM lower than 50) | A (percent inhibition at 10 μM lower than 50) | 
CNc1cc(Nc2cccn([C@H]3CC[C@@H]3OC)c2=O)nc2c(C(=O)NC3CC3)cnn12 [I-936] |  |  | A (percent inhibition at 10 μM lower than 50) | A (percent inhibition at 10 μM lower than 50) | 
CNc1cc(Nc2cccn(-c3ccccc3F)c2=O)nc2c(C(=O)N[C@H]3CC[C@H]3O)cnn12 [I-939] |  |  | A (percent inhibition at 10 μM lower than 50) | A (percent inhibition at 10 μM lower than 50) | 
CNc1cc(Nc2cccn(-c3ccccc3F)c2=O)nc2c(C(=O)N[C@@H]3CC[C@H]3O)cnn12 [I-940] |  |  | A (percent inhibition at 10 μM lower than 50) | A (percent inhibition at 10 μM lower than 50) | 
CNc1cc(Nc2cccn(-c3cccc(F)c3)c2=O)nc2c(C(=O)N[C@H]3CC[C@H]3O)cnn12 [I-945] | < 50 | < 50 |  |  | 
CNc1cc(Nc2cccc(N3CCCC3=O)n2)nc2c(C(=O)N[C@@H]3CC[C@@H]3O)cnn12 [I-970] | < 50 | < 50 |  |  | 
CNc1cc(Nc2cccn(C(C)C)c2=O)nc2c(C(=O)N[C@H]3CC[C@H]3O)cnn12 [I-977] |  |  | A (percent inhibition at 10 μM lower than 50) | A (percent inhibition at 10 μM lower than 50) | 
CNc1cc(Nc2cccn(C(C)C)c2=O)nc2c(C(=O)N[C@@H]3CC[C@H]3O)cnn12 [I-981] |  |  | A (percent inhibition at 10 μM lower than 50) | A (percent inhibition at 10 μM lower than 50) | 
CNc1cc(Nc2cccn([C@@H]3CCC[C@@H](O)C3)c2=O)nc2c(C(=O)N[C@@H]3C[C@@H]3F)cnn12 [I-983] |  |  | A (percent inhibition at 10 μM lower than 50) | A (percent inhibition at 10 μM lower than 50) | 
